The results in this text go back to PubChem BioAssay AID179 (DTP/NCI, 2004).

In this assay the test system is CEM cells HIV-1 protection, formazan growth assay. Description: NCI AIDS Antiviral Assay. The note with it: for IC50: measured here: growth of uninfected CEM cells. In a few lines: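 Screen of anti-HIV-1 activity in human CEM cells using a formazan-based growth measurement at five drug concentrations. Hits with 50% or greater protection were repeated, and confirmation required reproducible complete protection.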

Values joined by “and” are separate entries in the source; they are usually repeats but may differ in a detail not shown here. Identical values can stand only once. Active and inactive are the calls of the source.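 The calls were made as follows: active = compounds giving half or more protection of infected cells from virus-caused growth loss, again on retest; inactive = the rest.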

With `O=[N+]([O-])c1cc(Cc2cc(Cl)c(O)c([N+](=O)[O-])c2)cc(Cl)c1O`, the EC50 is more than 200 µM and the 50% inhibitory concentration (IC50) stood at 35.5 µM.

Turning to `S=C(Nc1ccccc1)Nc1[nH]c(=S)sc1-c1nc2ccccc2[nH]1`, the EC50 was more than 1.86 µM and the IC50 is more than 1.86 µM.

For the compound `Cc1c2oc3c(C)ccc(C(=O)NC4C(=O)NC(C(C)C)C(=O)N5CCCC[C@H]5C(=O)N(C)CC(=O)N(C)[C@@H](C(C)C)C(=O)OC4C)c3nc-2c(C(=O)NC2C(=O)N[C@H](C(C)C)C(=O)N3CCCC[C@H]3C(=O)N(C)CC(=O)N(C)C(C(C)C)C(=O)OC2C)c(N)c1=O` (stereo partly drawn), the EC50 was more than 2 µM and the half-inhibitory concentration (IC50) turned out to be 0.00331 µM.

For `OC(CN1CCC(c2ccccc2)CC1)c1ccc(Br)cc1` (stereo not drawn), the EC50 was more than 18.2 µM and the IC50 is more than 18.2 µM.

Take `O=S1(=O)C=C2CCCCC21` (stereo not drawn): the EC50 is more than 1580 µM and the IC50 is more than 1580 µM.

As to `COc1ccc(N=Nc2cc(OC)c(N=Nc3c(O)c4ccccc4[nH]c3=O)cc2OC)cc1`, the EC50 was more than 100 µM and the IC50 was 15.5 µM.

Regarding `CN(C)CCNC(=O)c1noc2c1CSc1ccccc1-2`, the EC50 was more than 407 µM and the IC50 was determined as 28.2 µM.

In the case of `Cc1cn(C2C[C@H](O)[C@]3(CO)C[C@H]23)c(=O)[nH]c1=O` (stereo partly drawn), the EC50 was more than 100 µM and the IC50 was more than 100 µM.

As to `CC1CCCCC12C(C#N)(C#N)C2(C#N)C#N` (stereo not drawn), the EC50 was more than 20 µM and the 50% inhibitory concentration (IC50) was determined as 9.55 µM.

As to `NNCCc1n[nH]c(=O)n1N`, the EC50 was more than 200 µM and the IC50 was more than 200 µM.

Take `O=c1n(CC2CO2)c(=O)n(CC2CO2)c(=O)n1CC1CO1` (stereo not drawn): the EC50 was more than 832 µM and the IC50 was 1.51 µM.

Regarding `Cn1c2ccc3cc2c(=S)c2cc(ccc21)OCCOCCOCCOCCOCCOCCO3`, the EC50 was more than 200 µM and the IC50 is 186 µM.

In the case of `O=[N+]([O-])c1ccc(Nc2ccc(Cl)cc2)c2nonc12`, the EC50 is more than 43.7 µM and the IC50 stood at 15.1 µM.

As for `Cc1sc(Nc2ccccc2[N+](=O)[O-])c(C#N)c1C`, the EC50 was 15.5 µM and the IC50 is more than 200 µM.

For the compound `CCOC(=O)CSc1c(C(=O)OCC)c(=O)n(-c2ccccc2)c(=S)n1-c1ccccc1`, the EC50 was more than 200 µM and the IC50 came to 31.6 µM.

As to `COc1ccccc1NC(=O)C(=O)C1C(=O)Nc2ccccc2S1=O` (stereo not drawn), the outcome was inactive.

As to `N=CN=CC(=S)O[C@@H]1C(=O)N2CCC[C@@]23CCCC[C@@H]13`, the EC50 is more than 25.1 µM and the IC50 was more than 25.1 µM.

For the compound `COC(=O)CCC(=O)NC1C2CC3CC(C2)CC1C3` (stereo not drawn), the EC50 was more than 135 µM and the IC50 is more than 135 µM.

With `Cc1ccc(C(=O)n2nc(C)c(N=Nc3ccccc3)c2C)cc1`, the result was inactive.

Consider `Nc1nc2cc(Cl)ccc2n1N`, for which the EC50 was more than 200 µM and the IC50 is more than 200 µM.

Take `CCOC(=O)CC1C(C(=O)OCC)=Cn2c([nH]c3cccc4cccc2c43)=C1C(=O)OCC` (stereo not drawn): the EC50 is more than 200 µM and the concentration for half-maximal inhibition (IC50) was determined as 30.9 µM.

With `Cc1ccc(S(=O)(=O)c2ccc(O)cc2)cc1`, the EC50 is more than 200 µM and the IC50 was 129 µM.

Turning to `O=[N+]([O-])c1ccc2c(Nc3ccccc3-c3ccccc3Nc3c4ccccc4nc4cc([N+](=O)[O-])ccc34)c3ccccc3nc2c1`, the EC50 is more than 2.29 µM and the 50% inhibitory concentration (IC50) was more than 2.29 µM.

Take `COCC1OC2(CCC[C@H]2O)O[C@H]1COC` (stereo partly drawn): the result was inactive.

Take `COc1c(O)c2c3c(cc(C)cc3c1C(C)C)OC2`: the EC50 is more than 28.2 µM and the IC50 is more than 28.2 µM.

For the compound `O=C1/C(=C/c2ccccc2F)CCc2ccccc21`, the EC50 was more than 10.7 µM and the 50% inhibitory concentration (IC50) is more than 10.7 µM.

As to `Nc1nc(Cl)c(/C=N\O)c(NCC2(CO)CCC2)n1`, the EC50 is more than 20 µM and the half-maximal inhibitory concentration (IC50) came out at 11.5 µM.

In the case of `CN(C)CC1CCCCC1O` (stereo not drawn), the EC50 is more than 1290 µM and the IC50 is more than 1290 µM.

Regarding `NS(=O)(=O)c1ccc(CNC(=O)c2ccccc2SC(=O)CCCC[n+]2ccccc2)cc1`, the EC50 was 1.38 µM and 0.759 µM; the IC50 is 28.2 µM and 11.7 µM.

As for `O=C(NC(=O)c1cn(CCN2CCNCC2)c(=O)[nH]c1=O)OCc1ccccc1`, the outcome was inactive.

Regarding `N#C/C(=C\c1cc(Br)cc(Br)c1O)c1ccc([N+](=O)[O-])cc1`, the EC50 is more than 100 µM and the IC50 was found to be 13.5 µM.

In the case of `CC1=N/C(=C\c2cccs2)C(=O)O1`, the EC50 is more than 200 µM and the IC50 was more than 200 µM.

Consider `CC(C)CCC(=O)c1ccoc1`, for which the EC50 is more than 1510 µM and the IC50 was more than 1510 µM.

As for `COC(=O)C(Cc1nc2ccccc2[nH]c1=O)/C(=N\NC(C)(C)C)C(=O)Nc1c(C)cc(Br)cc1C` (stereo not drawn), the EC50 is more than 64.6 µM and the IC50 came to 47.9 µM.

For the compound `S=C(N/N=C/c1ccccc1Cl)Nc1ccccc1`, the EC50 was more than 200 µM and the IC50 stood at 135 µM.

Regarding `CC(=O)OC[C@]12[C@H](OC(C)=O)[C@H](OC(C)=O)[C@@H]3C(OC(C)=O)[C@@]14OC3(C)COC(=O)c1cccnc1CCC(C)C(=O)OC([C@H](O)[C@@H]2OC(=O)c1ccccc1)[C@]4(C)O` (stereo partly drawn), the result was inactive.

For `O=c1[nH]c(=O)n(C2CC(O)C(COP(=O)(On3nnc4ccccc43)N3CCCCC3)O2)cc1F` (stereo not drawn), the EC50 was more than 200 µM and the half-inhibitory concentration (IC50) was 0.0631 µM.

Take `CS(=O)(=O)CC(Cc1ccccc1)C(=O)O` (stereo not drawn): the outcome was inactive.

Turning to `CC(=O)Nc1ccc(/C=C2/NC(=S)N(/C=C3\C(=O)Oc4ccccc4C3=O)C2=O)cc1`, the EC50 is more than 200 µM and the IC50 came to 155 µM.

As to `CC(=O)N1N=C(C)C2ON=C(c3ccc(Cl)cc3)P21` (stereo not drawn), the outcome was inactive.

Regarding `CC1=C(C(=O)NCc2ccccc2)C(c2ccc(Cl)c(Cl)c2)C(C(=O)NCc2ccccc2)=C(C)N1`, the result was inactive.

As for `O=C(c1cccs1)N(C(=S)N1CCN(c2ccccn2)CC1)c1ccccc1`, the EC50 was more than 17.8 µM and the IC50 was more than 17.8 µM.

In the case of `CCCOc1cnc([C@H]2CCC3[C@@H]4CC=C5C[C@@H](O)CC[C@]5(C)C4CC[C@@]32C)s1` (stereo partly drawn), the EC50 is more than 60.3 µM and the IC50 was more than 60.3 µM.

In the case of `[N-]=[N+]=C1C(=O)C2CC3CC1CC2C3` (stereo not drawn), the EC50 is more than 204 µM and the IC50 is more than 204 µM.

Turning to `O=C(/C=C/c1ccc2c(c1)OCO2)NCCc1ccco1`, the EC50 is more than 200 µM and the IC50 came out at 126 µM.

As to `CSC1=Nc2ccccc2N=C(N2CCCC2)C1`, the EC50 is 4.47 µM and the IC50 was more than 200 µM.

On to `COc1ccc(Nc2cnc3cc(N)ccc3n2)cc1OC`, for which the EC50 was more than 603 µM and the IC50 turned out to be 42.7 µM.

In the case of `O=C1c2ccccc2Sc2ccccc2N1CCCCN1CCN(c2ccc(F)cc2)CC1`, the EC50 was more than 200 µM and the 50% inhibitory concentration (IC50) is more than 200 µM.

As to `NC(=O)CSc1c2cc(O)ccc2nc2ccc(O)cc12`, the EC50 was more than 200 µM and the IC50 worked out at 36.3 µM.

Turning to `CC1(C)CCc2cc3c(cc2O1)OCC1c2cc(O)c(OCc4ccccc4)cc2OC31` (stereo not drawn), the EC50 is more than 200 µM and the IC50 came out at 23.4 µM.

Regarding `CCOC(=O)CC(=O)N(c1ccc(OC)cc1)C(C(=O)OC)c1ccccc1` (stereo not drawn), the EC50 is more than 200 µM and the IC50 came out at 166 µM.

As for `COc1ccc(N2C(=O)[C@@H]3[C@H](C2=O)c2[nH]c4ccccc4c2C2CCC(C(C)(C)C)C[C@@H]23)cc1` (stereo partly drawn), the 50% effective concentration (EC50) is more than 28.2 µM and the IC50 was more than 28.2 µM.

As to `C(=C/c1ccc2nc(-c3ccc(/C=C/C=N/NC4=NCCCN4)cc3)cn2c1)/C=N/NC1=NCCCN1`, the EC50 was more than 100 µM and the IC50 amounted to 16.6 µM.

For `CCC(C)[C@@H](NCc1ccccc1)[C@H](OCc1ccccc1)[C@@H]1COC(C)(C)O1` (stereo partly drawn), the EC50 was more than 200 µM and the IC50 was found to be 22.4 µM.

`Cc1ccccc1NC(=O)CC(=O)NNC(Sc1ccccc1)c1cc(N=Nc2ccc(Br)cc2)ccc1O` (stereo not drawn): the EC50 is more than 100 µM and the IC50 was determined as 1.23 µM.

For `NC(=O)C#CC#CC#CCO`, the EC50 is more than 891 µM and the IC50 came to 0.479 µM.

Regarding `O=c1[nH]n(Cc2ccccc2Cl)c2ccc([N+](=O)[O-])cc12`, the EC50 was more than 200 µM and the IC50 amounted to 69.2 µM.

For the compound `COc1ccc2c(c1)C1CCN(C)CC1OC2=O` (stereo not drawn), the result was inactive.

As to `CCc1cc(-c2ccc(OC)cc2)c(C#N)c(=S)n1C1OC(CO)C(O)C(O)C1O` (stereo not drawn), the EC50 is more than 200 µM and the IC50 was 126 µM.

For the compound `CN(C)/N=C1\CC(c2ccccc2)C(C#N)(C#N)C1(C#N)C#N` (stereo not drawn), the EC50 was more than 200 µM and the half-maximal inhibitory concentration (IC50) worked out at 5.62 µM.

Turning to `CC1=NC(C)(CO)CO1` (stereo not drawn), the EC50 was more than 200 µM and the IC50 was more than 200 µM.

Turning to `NC(=O)c1cnc2sc3ccccc3n2c1=O`, the EC50 is more than 200 µM and the IC50 was more than 200 µM.

Take `C=CC[C@H]1[C@@H](O[Si](C)(C)C(C)(C)C)[C@H](n2ccc(=O)[nH]c2=O)O[C@@H]1CO[Si](C)(C)C(C)(C)C`: the EC50 is more than 200 µM and the half-maximal inhibitory concentration (IC50) came out at 10 µM.

Take `COc1cc(C(=O)C/C(CCC(=O)Nc2ccccc2[N+](=O)[O-])=N\NC(=O)C(N)=O)ccc1O`: the EC50 was more than 145 µM and the IC50 was more than 145 µM.

In the case of `CC(C)C1=CC2=C[C@H](O)[C@H]3C(C)(C)CCC[C@]3(C)C2=C(O)C1=O`, the EC50 is more than 20 µM and the half-inhibitory concentration (IC50) amounted to 1.62 µM.

Turning to `COc1ccc(C2S/C(=C\c3ccc(O)cc3)C(=O)N2NC(=O)Cc2ccccc2)cc1` (stereo not drawn), the EC50 is more than 112 µM and the IC50 was more than 112 µM.

In the case of `CC(C)OC(=S)Nc1ccc(Cl)c(COC(C)(C)C)c1`, the EC50 was 5.37 µM and the IC50 is 31.6 µM.

`CC[n+]1c(/C=C/c2ccc(N(CCCl)CCCl)cc2)ccc2cc(Br)ccc21`: the result was inactive.

For `COc1cc(OC)c2ccc(=O)oc2c1`, the EC50 is more than 91.2 µM and the IC50 was more than 91.2 µM.

Regarding `O=S1(=O)c2ccccc2-c2ccccc21`, the outcome was inactive.

Take `CN(C)c1ccc(-c2c(C#N)c(-c3ccccc3)n(NS(=O)(=O)c3ccccc3)c(=O)c2C#N)cc1`: the EC50 was more than 200 µM and the IC50 is 13.2 µM.

Take `CC(NC(=O)C(N)CC(=O)O)C(=O)OC12CC3CC(CC(C3)C1)C2` (stereo not drawn): the EC50 was more than 200 µM and the IC50 is more than 200 µM.

What is called EC50 is the concentration needed to bring the measured effect to its halfway point. One may read the IC50 as the concentration needed to halve the response being measured. The low end stands for greater potency, the high end for weaker potency.
